From patent publication US20040023884A1, “Biologically active peptides from functional domains of bactericidal/permeability-increasing protein and uses thereof” (priority 1993, published 2004)

How the values were obtained:
[1] = system: rough mutant E. coli J5 bacteria; assay: Radial diffusion bactericidal assay, E. coli J5; assay type: cell-based; conditions: radial diffusion; PROBIT analysis; E. coli J5 (rough)
Summary of the method: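 Log-phase bacteria, washed in 10 mM sodium phosphate pH 7.4, were seeded at 4×10^6 CFU/mL in underlayer agarose. BPI fragments (5 or 10 μL) went into 3 mm wells for 3 h at 37° C., then overlayer agarose was added. After overnight 37° C. incubation, clearing zones were measured by micrometer.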

E. coli O86a:K61 = assay: Radial diffusion bactericidal assay, E. coli O86a:K61; assay type: cell-based; conditions: FIG. 11i
[2] = 3H-heparin binding assay (affinity and capacity); conditions: for Heparin Capacity: heparin bound at saturation; for Kd: read-out: Heparin Affinity
Summary of the method: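 Bound 3H-heparin was counted by liquid scintillation after 1 h incubation at 4 °C with fragments immobilised on PVDF-bottomed wells, then washing in blocking buffer. Signal was corrected for BSA-related background, and varying amounts of rBPI23 were used as positive control.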

[3] = system: E. coli 0111:B4 (smooth) bacteria; assay: Radial diffusion bactericidal assay, E. coli 0111:B4; assay type: cell-based; conditions: radial diffusion; PROBIT analysis; E. coli O111:B4 (smooth)
E. coli 0113 LPS = assay: Limulus Amoebocyte Lysate (LAL) inhibition assay; assay type: biochemical; conditions: alanine variant relative to BPI.2
Summary of the method: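 BPI proteolytic fragments incubated with E. coli 0113 LPS (4 ng/mL final) for 3 h at 37 °C, then diluted in D-PBS to 200 pg/mL LPS for chromogenic LAL. Lysate 25 min, substrate 20–30 min at room temperature, acetic acid stop; OD405 expressed as percent LPS inhibition.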

[4] = system: endotoxin (e.g. E. coli 01:B4); assay: Mouse experimental endotoxemia model; set-up: species or system mice; conditions: in vivo
Method: BPI functional domain peptides are tested for their efficacy in a mouse experimental endotoxemia model. Groups of at least 15 mice are administered an intravenous injection of endotoxin (e.g. E. coli 01:B4, Sigma Chemical Co., St. Louis, Mo.) at a LD90 dosage (e.g., 40 mg/kg). This is followed by a second intravenous injection of the test peptide in varying concentrations from about 0.1 mg/kg to about 100 mg/kg, preferably in the range of about 1 to 50 mg/kg. Injections of buffer without added peptide are used in negative control mice. The animals are observed for 7 days and mortality recorded. The efficacy of the peptides of this invention is measured by a decrease in endotoxemia-associated mortality in peptide-injected mice as compared with control mice.

Staphylococcus aureus = assay: Radial diffusion bactericidal assay, Staphylococcus aureus; assay type: cell-based; conditions: radial diffusion; PROBIT analysis; S. aureus
[5] = In vivo APTT in heparinized rats; set-up: species or system Sprague-Dawley rats; conditions: 100 U/kg heparin i.v., test protein 5 minutes later, blood 2 minutes after
Method: The in vivo effect of exemplary BPI combination peptides on APTT in heparinized rats was determined and compared with the in vivo effect of rBPI23. APTT is lengthened by the presence of endogenous or exogenous inhibitors of thrombin formation, such as therapeutically administered heparin. Agents which neutralize the anti-coagulant effects of heparin will reduce the APTT as measured by this test. Sprague-Dawley rats housed under NIH guidelines were administered with 100 U/kg heparin by bolus intravenous injections via the animals' tail vein followed 5 minutes later by administration of varying amounts of test or control protein as compared with rBPI23. The APTT was then determined from blood samples collected from the abdominal aorta 2 minutes after the administration of the test or control protein. The APTT of untreated animals, as well as animals treated only with a BPI peptide, was also determined.

ATIII/heparin complexes = assay: Thrombin inactivation by ATIII/heparin complexes (Chromostrate anti-thrombin assay); assay type: biochemical; conditions: 1.0 to 100 μg/mL
Method: BPI functional domain peptides BPI.2, BPI.3, BPI.4, BPI.5, BPI.6, and BPI.8, along with rBPI23 as a positive control, were assayed for their effect on thrombin inactivation by ATIII/heparin complexes according to the method of Example 3 in copending and co-assigned U.S. patent application Ser. No. 08/093,202, filed Jul. 15, 1993, incorporated by reference. Specifically, a Chromostrate™ anti-thrombin assay kit (Organon Teknika Corp., Durham, N.C.) was used to examine the inhibition of purified thrombin by preformed ATIII/heparin complexes in plasma.
Briefly, the assay was performed in 96 well microtiter plates in triplicate with a final volume per well of 200 μL. Varying concentrations of the BPI functional domain peptides ranging from 1.0 μg/mL to 100 μg/mL were assayed to determine their effect on thrombin inhibition in the presence of pre-formed ATIII/heparin complexes. The order of addition of assay components was as follows: 1) a dilution series of rBPI23 or BPI functional domain peptides or thaumatin as a control protein, with final concentrations of 100, 50, 25, 10 and 1 μg/well, diluted in PBS in a final volume of 50 μL; 2) 50 μL plasma diluted 1:100 in a buffer supplied by the manufacturer, 3) 50 μl thrombin at 1 nKat/mL in a buffer supplied by the manufacturer, and 4) 50 μL chromogenic substrate at a concentration of 1 μmol/mL in water. The reaction was allowed to proceed for 10 minutes at 37° C. and stopped with the addition of 50 μL 0.1M citric acid. The colorimetric reaction was quantitated on a microplate reader as described in Example 3.

Substance | pmol added to well to achieve a 30 mm^2 bactericidal zone, E. coli J5 [1] | bactericidal activity (in words) (E. coli O86a:K61) | Heparin Capacity [2] [ng] | Kd [2] [µM] | pmol added to well to achieve a 30 mm^2 bactericidal zone, E. coli O111:B4 [3] | LAL (relative difference) (E. coli 0113 LPS) | activity in the murine endotoxemia model (in words) [4] | pmol added to well to achieve a 30 mm^2 bactericidal zone, S. aureus (Staphylococcus aureus) | APTT in heparinized rats (in words) [5] | cpm ^3H-Heparin bound ([2]; 100 picomoles of each fragment per well, saturating 3H-heparin 20 μg/mL, mean of duplicate wells ± range) | heparin neutralization effect (in words) (ATIII/heparin complexes)
IKISGKWKAAKRFLK [BPI.23] | 1,330.40 pmol | showed bactericidal activity | 285.0 | 0.693 | 14,445.00 pmol | = (no difference in the LAL assay) |  |  |  |  | 
KWKAQFRFLKKSKVGWLILLFHKK [BPI.102] | 13,814.12 pmol |  | 535.2 | 4.61 | 697,655.78 pmol |  | active in this murine model | b (no detectable activity up to 5 μg/well) |  |  | 
thaumatin [reference compound] |  |  |  |  |  |  |  |  | no effect on APTT times in heparinized animals | 7,432 ± 83 cpm | no neutralizing effect
